Test: Transparency (no crystallization or gelation) of 12-hydroxystearic acid compositions after manufacturing, visual inspection
Format: physicochemical
Parameters: key: C: a substantially transparent or transparent composition for at least three (3) months after manufacturing; X: an opaque (non-transparent, non-translucent) composition inconsistent with the claimed compositions of this invention and where benefit agent crystallization or composition gelation is almost immediately observed
Details: SBA = 12-hydroxystearic acid
Source text: Cosmetic composition is meant to mean a leave-on or wash-off composition, preferably leave-on, for topical application to mammals, especially humans. Such a composition can include tonics, lotions, personal washes, serums, spot correctors, compositions for facial masks or wipes, make-up removers, patches, scrubs or the like. Substantially transparent as used herein, means allowing light to pass but diffusing the light so that items on the opposite side of light entry are not clearly visible. Substantially transparent is synonymous with translucent. Transparent, as used herein, means capable of transmitting light where objects opposite the point of entry of light are seen clearly upon a visable inspection (i.e., 2.5 cm of sample placed 5 cm over an object and viewed from 25 cm away from viewer's eyes). Flowable, as used herein, means having a viscosity from 0 to 8,000 cps, and preferably, from 10 to 4,000 cps, and most preferably, from 500 to 2,000 cps, including all ranges subsumed therein (viscosity measured on a Brookfield Viscometer, 24° C., 20 RPM, Spindle RV2). Free of crystallization and gelation as used herein means remaining at least substantially transparent (preferably transparent) at ambient temperature for at least three (3) months. Use of substantially transparent, transparent and translucent herein is based on the mixture of hydroxy functionalized solvent (with or without miscible co-solvent) and 12-hydroxystearic acid. It is not to say the mixture cannot, for example, comprise an optional opacifier. Hydroxy group density (“HD”) means the molecular weight of total solvent hydroxy group/the molecular weight of the solvent where solvent hydroxy group can include the hydroxy group on a carboxylic acid group. Methanol, for example, has an HD of 0.53, 17 g/mol/32 g/mol. Regarding optional additives, they may be used according to their solubility where those that are not water soluble may be selected for use in the composition substantially free of water as described herein and those which are water soluble may be used in the aforementioned optional but separate and distinct phase. Miscible/Soluble, as used herein, means ability to mix/dissolve homogeneously at 70 to 85° C. and remain homogeneously dissolved or mixed upon cooling. Comprising, as used herein, is meant to include consisting essentially of and consisting of. For the avoidance of doubt, therefore, the composition of this invention may consist essentially of or consist of 12-hydroxystearic acid and hydroxy functionalized solvent. Anhydrous as used herein means a composition substantially free of water whereby the composition is less than 2% by weight water, and preferably, less than 1% by weight water based on total weight of the composition comprising 12-hydroxystearic acid and hydroxy functionalized solvent. Anhydrous also includes free of water (i.e., no water) within the composition comprising 12-hydroxystearic and hydroxy fuctionalized solvent. Double phase product includes a two (2) portion product that may be separately packaged or preferably a biphasic product (i.e., distinct immiscible portions). Skin benefit agent means an agent in addition to hydroxyl functionalized solvent and 12-hydroxystearic acid that provides benefit to skin. The skin benefit agent used in the anhydrous composition of the invention that comprises 12-hydroxystearic acid is preferably soluble or miscible in the same. To the extent optional water miscible/soluble actives or ingredients are used, they will preferably be provided, as later described, in a double phase product with the anhydrous composition of this invention, the double phase product having a distinct phase often being a water phase (including emulsions, solutions and dispersions), water containing concentrate or water soluble solid, particulate or powder. Water phase, as used herein, includes a composition having 2% or more water, and preferably, from 10% to 98% by weight water based on total weight of the water phase. […]

CCOCCOCCO [2-(2-Ethoxyethoxy)ethanol]
Transparency of composition (1% SBA/99% Solvent): C (a substantially transparent or transparent composition for at least three (3) months after manufacturing)
Transparency of composition (3% SBA/97% Solvent): C (a substantially transparent or transparent composition for at least three (3) months after manufacturing)
Transparency of composition (5% SBA/95% Solvent): C (a substantially transparent or transparent composition for at least three (3) months after manufacturing)
Transparency of composition (10% SBA/90% Solvent): X
Transparency of composition (15% SBA/85% Solvent): X
Transparency of composition (20% SBA/80% Solvent): X
Transparency of composition (25% SBA/75% Solvent): X

CC(O)CO (stereo not drawn) [Propylene Glycol]
Transparency of composition (1% SBA/99% Solvent): C (a substantially transparent or transparent composition for at least three (3) months after manufacturing)
Transparency of composition (3% SBA/97% Solvent): X
Transparency of composition (5% SBA/95% Solvent): X
Transparency of composition (10% SBA/90% Solvent): X
Transparency of composition (15% SBA/85% Solvent): X
Transparency of composition (20% SBA/80% Solvent): X
Transparency of composition (25% SBA/75% Solvent): X

OCc1ccccc1 [Benzyl Alcohol]
Transparency of composition (1% SBA/99% Solvent): C (a substantially transparent or transparent composition for at least three (3) months after manufacturing)
Transparency of composition (3% SBA/97% Solvent): C (a substantially transparent or transparent composition for at least three (3) months after manufacturing)
Transparency of composition (5% SBA/95% Solvent): C (a substantially transparent or transparent composition for at least three (3) months after manufacturing)
Transparency of composition (10% SBA/90% Solvent): X
Transparency of composition (15% SBA/85% Solvent): X
Transparency of composition (20% SBA/80% Solvent): X
Transparency of composition (25% SBA/75% Solvent): X

OCCCCO [Butylene Glycol]
Transparency of composition (1% SBA/99% Solvent): C (a substantially transparent or transparent composition for at least three (3) months after manufacturing)
Transparency of composition (3% SBA/97% Solvent): X
Transparency of composition (5% SBA/95% Solvent): X
Transparency of composition (10% SBA/90% Solvent): X
Transparency of composition (15% SBA/85% Solvent): X
Transparency of composition (20% SBA/80% Solvent): X
Transparency of composition (25% SBA/75% Solvent): X

CO [Methanol]
Transparency of composition (1% SBA/99% Solvent): C (a substantially transparent or transparent composition for at least three (3) months after manufacturing)
Transparency of composition (3% SBA/97% Solvent): C (a substantially transparent or transparent composition for at least three (3) months after manufacturing)
Transparency of composition (5% SBA/95% Solvent): C (a substantially transparent or transparent composition for at least three (3) months after manufacturing)
Transparency of composition (10% SBA/90% Solvent): C (a substantially transparent or transparent composition for at least three (3) months after manufacturing)
Transparency of composition (15% SBA/85% Solvent): C (a substantially transparent or transparent composition for at least three (3) months after manufacturing)
Transparency of composition (20% SBA/80% Solvent): C (a substantially transparent or transparent composition for at least three (3) months after manufacturing)
Transparency of composition (25% SBA/75% Solvent): X

Ethylhexyl Hydroxystearate
Transparency of composition (1% SBA/99% Solvent): C (a substantially transparent or transparent composition for at least three (3) months after manufacturing)
Transparency of composition (3% SBA/97% Solvent): X
Transparency of composition (5% SBA/95% Solvent): X
Transparency of composition (10% SBA/90% Solvent): X
Transparency of composition (15% SBA/85% Solvent): X
Transparency of composition (20% SBA/80% Solvent): X
Transparency of composition (25% SBA/75% Solvent): X

CC(C)CCCCCCCCCCCCCCCO [Isostearyl Alcohol]
Transparency of composition (1% SBA/99% Solvent): C (a substantially transparent or transparent composition for at least three (3) months after manufacturing)
Transparency of composition (3% SBA/97% Solvent): C (a substantially transparent or transparent composition for at least three (3) months after manufacturing)
Transparency of composition (5% SBA/95% Solvent): X
Transparency of composition (10% SBA/90% Solvent): X
Transparency of composition (15% SBA/85% Solvent): X
Transparency of composition (20% SBA/80% Solvent): X
Transparency of composition (25% SBA/75% Solvent): X

Conjugated Linoleic Acid
Transparency of composition (1% SBA/99% Solvent): C (a substantially transparent or transparent composition for at least three (3) months after manufacturing)
Transparency of composition (3% SBA/97% Solvent): C (a substantially transparent or transparent composition for at least three (3) months after manufacturing)
Transparency of composition (5% SBA/95% Solvent): X
Transparency of composition (10% SBA/90% Solvent): X
Transparency of composition (15% SBA/85% Solvent): X
Transparency of composition (20% SBA/80% Solvent): X
Transparency of composition (25% SBA/75% Solvent): X

CCCCCCCCCCC(CO)CCCCCCCC (stereo not drawn) [Octyldodecanol]
Transparency of composition (1% SBA/99% Solvent): C (a substantially transparent or transparent composition for at least three (3) months after manufacturing)
Transparency of composition (3% SBA/97% Solvent): C (a substantially transparent or transparent composition for at least three (3) months after manufacturing)
Transparency of composition (5% SBA/95% Solvent): X
Transparency of composition (10% SBA/90% Solvent): X
Transparency of composition (15% SBA/85% Solvent): X
Transparency of composition (20% SBA/80% Solvent): X
Transparency of composition (25% SBA/75% Solvent): X

CCO [Ethanol]
Transparency of composition (1% SBA/99% Solvent): C (a substantially transparent or transparent composition for at least three (3) months after manufacturing)
Transparency of composition (3% SBA/97% Solvent): C (a substantially transparent or transparent composition for at least three (3) months after manufacturing)
Transparency of composition (5% SBA/95% Solvent): C (a substantially transparent or transparent composition for at least three (3) months after manufacturing)
Transparency of composition (10% SBA/90% Solvent): C (a substantially transparent or transparent composition for at least three (3) months after manufacturing)
Transparency of composition (15% SBA/85% Solvent): C (a substantially transparent or transparent composition for at least three (3) months after manufacturing)
Transparency of composition (20% SBA/80% Solvent): X
Transparency of composition (25% SBA/75% Solvent): X

CC(C)CCCCCCCCCCCCCCC(=O)O [Isostearic Acid]
Transparency of composition (1% SBA/99% Solvent): C (a substantially transparent or transparent composition for at least three (3) months after manufacturing)
Transparency of composition (3% SBA/97% Solvent): C (a substantially transparent or transparent composition for at least three (3) months after manufacturing)
Transparency of composition (5% SBA/95% Solvent): X
Transparency of composition (10% SBA/90% Solvent): X
Transparency of composition (15% SBA/85% Solvent): X
Transparency of composition (20% SBA/80% Solvent): X
Transparency of composition (25% SBA/75% Solvent): X

OCCOc1ccccc1 [Pehnoxyethanol]
Transparency of composition (1% SBA/99% Solvent): C (a substantially transparent or transparent composition for at least three (3) months after manufacturing)
Transparency of composition (3% SBA/97% Solvent): C (a substantially transparent or transparent composition for at least three (3) months after manufacturing)
Transparency of composition (5% SBA/95% Solvent): C (a substantially transparent or transparent composition for at least three (3) months after manufacturing)
Transparency of composition (10% SBA/90% Solvent): X
Transparency of composition (15% SBA/85% Solvent): X
Transparency of composition (20% SBA/80% Solvent): X
Transparency of composition (25% SBA/75% Solvent): X

Source: patent US10660836B2, “Hydroxy functionalized solvent based skin benefit composition” (Conopco, Inc., priority 2015, dated 2020)
